Experiment [1] deals with T1, HCV NS3/4A protease complex, BMS strain (UniProt P27958, species not given/STRAIN_BMS).
T1 construct: said of H77 and J4L6S; fused on or other part: three-lysine solubilising tail at the end of NS4A (printed for the H77 and J4L6S constructs; probably the same for BMS)
The experiment in a line: FRET peptide assay to monitor HCV NS3/4A proteolytic activity (BMS strain). Type of experiment: biochemical, Hepatitis C virus (genotype 1a). To be noted: Table 2, NS3/4A BMS strain, activity range. The text has this:
HCV […] protease complexes, derived from the BMS strain, H77 strain or J4L6S strain, were generated, as described below. These purified recombinant proteins were generated for use in a homogeneous assay (see below) to provide an indication of how effective compounds of the present disclosure would be in inhibiting HCV NS3 proteolytic activity.
Serum from an HCV-infected patient was obtained from Dr. T. Wright, San Francisco Hospital. An engineered full-length cDNA (compliment deoxyribonucleic acid) template of the HCV genome (BMS strain) was constructed from DNA fragments obtained by reverse transcription-PCR (RT-PCR) of serum RNA (ribonucleic acid) and using primers selected on the basis of homology between other genotype 1a strains. From the determination of the entire genome sequence, a genotype 1a was assigned to the HCV isolate according to the classification of Simmonds et al. (See Simmonds, P. et al., J. Clin. Microbiol., 31(6), 1493-1503 (1993)). […] The infectious clones, H77 (1a genotype) and J4L6S (1b genotype) were obtained from R. Purcell (NIH) and the sequences are published in GENBANK® (AAB67036, see Yanagi, M. et al., Proc. Natl. Acad. Sci. U.S.A., 94(16):8738-8743 (1997); AF054247, see Yanagi, M. et al., Virology, 244(1):161-172 (1998)).
The H77 and J4L6S strains were used for production of recombinant NS3/4A protease complexes. DNA encoding the recombinant HCV NS3/4A protease complex (amino acids 1027 to 1711) for these strains were manipulated as described by P. Gallinari et al. (see Gallinari, P. et al, Biochemistry, 38(17):5620-5632 (1999)). Briefly, a three-lysine solubilizing tail was added at the 3′-end of the NS4A coding region. The cysteine in the P1 position of the NS4A-NS4B cleavage site (amino acid 1711) was changed to a glycine to avoid the proteolytic cleavage of the lysine tag. Furthermore, a cysteine to serine mutation was introduced by PCR at amino acid position 1454 to prevent the autolytic cleavage in the NS3 helicase domain. The variant DNA fragment was cloned in the pET21b bacterial expression vector (Novagen) and the NS3/4A complex was expressed in Escherichia. coli strain BL21 (DE3) (Invitrogen) following the protocol described by P. Gallinari et al. (see Gallinari, P. et al., J. Virol., 72(8):6758-6769 (1998)) with modifications. Briefly, the NS3/4A protease complex expression was induced with 0.5 millimolar (mM) Isopropyl β-D-1-thiogalactopyranoside (IPTG) for 22 hours (h) at 20° C. A typical fermentation (1 Liter (L)) yielded approximately 10 grams (g) of wet cell paste. The cells were resuspended in lysis buffer (10 mL/g) consisting of 25 mM N-(2-hydroxyethyl)piperazine-N′-(2-ethane sulfonic acid) (HEPES), pH 7.5, 20% glycerol, 500 mM sodium chloride (NaCl), 0.5% Triton X-100, 1 microgram/milliliter (“μg/mL”) lysozyme, 5 mM magnesium chloride (MgCl2), 1 μg/ml DnaseI, 5 mM β-mercaptoethanol (βME), protease inhibitor-ethylenediamine tetraacetic acid (EDTA) free (Roche), homogenized and incubated for 20 minutes (min) at 4° C. The homogenate was sonicated and clarified by ultra-centrifugation at 235000 g for 1 hour (h) at 4° C. Imidazole was added to the supernatant to a final concentration of 15 mM and the pH adjusted to 8.0. The crude protein extract was loaded on a Nickel-Nitrilotriacetic acid (Ni-NTA) column pre-equilibrated with buffer B (25 mM HEPES, pH 8.0, 20% glycerol, 500 mM NaCl, 0.5% Triton X-100, 15 mM imidazole, 5 mM βME). The sample was loaded at a flow rate of 1 mL/min. The column was washed with 15 column volumes of buffer C (same as buffer B except with 0.2% Triton X-100). The protein was eluted with 5 column volumes of buffer D (same as buffer C except with 200 mM Imidazole).
NS3/4A protease complex-containing fractions were pooled and loaded on a desalting column Superdex-S200 pre-equilibrated with buffer D (25 mM HEPES, pH 7.5, 20% glycerol, 300 mM NaCl, 0.2% Triton X-100, 10 mM βME). Sample was loaded at a flow rate of 1 mL/min. […]

Experiment [2] concerns HCV replicon in HUH-7 cells. The experiment is described as follows: HCV replicon FRET assay. The note with it: Hepatitis C virus, Huh-7; Table 2, HCV replicon, activity range; replicon assay format not stated; read-out: EC50. Type of experiment: cell-based, Hepatitis C virus (strain 1b). The text has this: An HCV replicon whole cell system was established as described by Lohmann, V. et al., Science, 285(5424):110-113 (1999). This system enabled us to evaluate the effects of our HCV Protease compounds on HCV RNA replication. Briefly, using the HCV strain 1b sequence described in the Lohmann paper (Accession number: AJ238799), an HCV cDNA was synthesized by Operon Technologies, Inc. (Alameda, Calif.), and the full-length replicon was then assembled in plasmid pGem9zf(+) (Promega, Madison, Wis.) using standard molecular biology techniques. The replicon consists of (i) the HCV 5′ UTR fused to the first 12 amino acids of the capsid protein, (ii) the neomycin phosphotransferase gene (neo), (iii) the IRES from encephalomyocarditis virus (EMCV), and (iv) HCV NS3 to NS5B genes and the HCV 3′ UTR. Plasmid DNAs were linearized with ScaI and RNA transcripts were synthesized in vitro using the T7 MegaScript transcription kit (Ambion, Austin, Tex.) according to manufacturer's directions. In vitro transcripts of the cDNA were transfected into the human hepatoma cell line, HUH-7. […] Resulting cell lines were characterized for positive and negative strand RNA production and protein production over time.
The HCV replicon FRET assay was developed to monitor the inhibitory effects of compounds described in the disclosure on HCV viral replication. HUH-7 cells, constitutively expressing the HCV replicon, were grown in Dulbecco's Modified Eagle Media (DMEM) (Gibco-BRL) containing 10% Fetal calf serum (FCS) (Sigma) and 1 mg/ml G418 (Gibco-BRL). Cells were seeded the night before (1.5×10^4 cells/well) in 96-well tissue-culture sterile plates. Compound and no compound controls were prepared in DMEM containing 4% FCS, 1:100 Penicillin/Streptomysin (Gibco-BRL), 1:100 L-glutamine and 5% DMSO in the dilution plate (0.5% DMSO final concentration in the assay). Compound/DMSO mixes were added to the cells and incubated for 4 days at 37° C. After 4 days, cells were first assessed for cytotoxicity using alamar Blue (Trek Diagnostic Systems) for a CC50 reading. The toxicity of compound (CC50) was determined by adding 1/10th volume of alamar Blue to the media incubating the cells. After 4 h, the fluorescence signal from each well was read, with an excitation wavelength at 530 nm and an emission wavelength of 580 nm, using the CYTOFLUOR® Series 4000 (Perspective Biosystems). Plates were then rinsed thoroughly with Phosphate-Buffered Saline (PBS) (3 times 150 μl). The cells were lysed with 25 μl of a lysis assay reagent containing an HCV protease substrate (5× cell Luciferase cell culture lysis reagent (PROMEGA® #E153A) diluted to 1× with distilled water, NaCl added to 150 mM final, the FRET peptide substrate (as described for the enzyme assay above) diluted to 10 μM final from a 2 mM stock in 100% DMSO. The plate was then placed into the CYTOFLUOR® 4000 instrument which had been set to 340 nm excitation/490 nm emission, automatic mode for 21 cycles and the plate read in a kinetic mode. EC50 determinations were carried out as described for the IC50 determinations.
For orientation: A replicon is a self-replicating genome or part of one, used to study replication in cells.

The structures appear in SMILES notation.

T1 sequence (P27958 1027-1657, change not shown, one chain of several): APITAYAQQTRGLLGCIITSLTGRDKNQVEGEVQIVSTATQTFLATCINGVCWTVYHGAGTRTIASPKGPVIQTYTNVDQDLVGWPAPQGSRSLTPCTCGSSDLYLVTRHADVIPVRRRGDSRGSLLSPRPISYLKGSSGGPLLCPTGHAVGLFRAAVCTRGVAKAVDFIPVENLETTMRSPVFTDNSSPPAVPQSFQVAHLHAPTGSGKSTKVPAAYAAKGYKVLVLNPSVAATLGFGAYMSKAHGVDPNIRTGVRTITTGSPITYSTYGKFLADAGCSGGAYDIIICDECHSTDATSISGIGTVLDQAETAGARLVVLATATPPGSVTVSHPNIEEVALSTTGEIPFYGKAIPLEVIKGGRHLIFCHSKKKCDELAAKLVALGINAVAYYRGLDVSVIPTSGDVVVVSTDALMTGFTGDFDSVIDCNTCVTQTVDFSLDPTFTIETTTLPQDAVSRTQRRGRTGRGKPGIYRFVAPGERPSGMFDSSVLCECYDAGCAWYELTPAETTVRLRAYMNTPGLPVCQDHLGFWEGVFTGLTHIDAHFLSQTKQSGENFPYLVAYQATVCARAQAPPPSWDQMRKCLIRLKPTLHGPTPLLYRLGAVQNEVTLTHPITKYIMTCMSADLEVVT

For the compound `C=C[C@@H]1C[C@]1(NC(=O)[C@@H]1C[C@@](SC(C)C)(c2ccc(-c3ccccc3)cc2)CN1C(=O)[C@@H](NC(=O)OC1(C)CCCC1)C(C)(C)C)C(=O)NS(=O)(=O)C1CC1` [Example 11, 1-methylcyclopentyl (S)-1-((2S,4R)-4-(biphenyl-4-yl)-2-((1R,2S)-1-(cyclopropylsulfonylcarbamoyl)-2-vinylcyclopropylcarbamoyl)-4-(isopropylthio)pyrrolidin-1-yl)-3,3-dimethyl-1-oxobutan-2-ylcarbamate], in experiment [1], the IC50 (as a rule, the concentration that inhibits the measured activity by half) lay in the range of 1 to 20 nM. The EC50 (usually the concentration that produces a half-maximal response) in experiment [2] is 6 to 100 nM.
As for `C=CCS[C@@]1(c2ccc(-c3ccccc3)cc2)C[C@@H](C(=O)N[C@]2(C(=O)NS(=O)(=O)C3CC3)C[C@H]2C=C)N(C(=O)[C@@H](NC(=O)OC(C)(C)C)C(C)(C)C)C1` [Example 12, tert-butyl (S)-1-((2S,4R)-4-(allylthio)-4-(biphenyl-4-yl)-2-((1R,2S)-1-(cyclopropylsulfonylcarbamoyl)-2-vinylcyclopropylcarbamoyl)pyrrolidin-1-yl)-3,3-dimethyl-1-oxobutan-2-ylcarbamate], the IC50 in experiment [1] is 1 to 20 nM. In addition, the EC50 in experiment [2] lay in the range of 6 to 100 nM.

Values taken from patent US7964560B2, “Hepatitis C virus inhibitors” (Bristol-Myers Squibb Company, priority 2008, dated 2011).
